# Results taken from patent publication US20240158446A1, “CYCLIC COMPOUND HAVING SELECTIVE INHIBITORY ACTION ON KRAS OVER HRAS AND NRAS” (CHUGAI SEIYAKU KABUSHIKI KAISHA, priority 2021, published 2024).
# Like-named read-outs stand apart in the source and are kept apart here. Where a SMILES comes first, the peptide text is derived from it. Bridges are numbered along the chain shown (N, C = ends). [ ]: non-standard residue; d: D form. The star is where a group is joined. hPhe(3-Cl-4-CF3) = N[C@@H](CCc1ccc(C(F)(F)F)c(Cl)c1)C(=O)O; NPrPhe(4-CF3) = CCCN[C@@H](Cc1ccc(C(F)(F)F)cc1)C(=O)O; NMeGly(cPent) = CN[C@H](C(=O)O)C1CCCC1; Hyp = O=C(O)[C@@H]1C[C@@H](O)CN1; NMeD = CN[C@@H](CC(=O)O)C(=O)O; NMeL = CN[C@@H](CC(C)C)C(=O)O; NMeAbu = CC[C@H](NC)C(=O)O; Morpholide = C1CN(*)CCO1; NMeA = CN[C@@H](C)C(=O)O; Ac5c = NC1(C(=O)O)CCCC1; Aze = O=C(O)[C@@H]1CCN1; Sar = CNCC(=O)O
# Tests used:
# [1] = biological target: GDP-bound KRAS wild-type protein (Homo sapiens, UniProt P01116); assay: Binding to KRAS by surface plasmon resonance (SPR), Single Cycle Kinetics; conditions: GDP-bound KRAS wild-type protein, read-out: KRAS KD
# [2] = biological target: GDP-bound NRAS wild-type protein (Homo sapiens, UniProt P01111); assay: Binding to NRAS by surface plasmon resonance (SPR), Single Cycle Kinetics; conditions: for NRAS/KRAS (ratio of KD value with respect to GDP-bound NRAS wild-type protein to KD value with respect to KRAS): SPR KD ratio NRAS/KRAS, class symbols
# [3] = biological target: GDP-bound HRAS wild-type protein (Homo sapiens, UniProt P01112); assay: Binding to HRAS by surface plasmon resonance (SPR), Single Cycle Kinetics; conditions: for HRAS/KRAS (ratio of KD value with respect to GDP-bound HRAS wild-type protein to KD value with respect to KRAS): SPR KD ratio HRAS/KRAS, class symbols
# [4] = SPR, GDP-bound NRAS wild-type protein vs GDP-bound KRAS wild-type protein
# [5] = SPR, GDP-bound HRAS wild-type protein vs GDP-bound KRAS wild-type protein
# [6] = SPR Single Cycle Kinetics, 1:1 binding model
# Sequence of GDP-bound NRAS wild-type protein (P01111 whole entry): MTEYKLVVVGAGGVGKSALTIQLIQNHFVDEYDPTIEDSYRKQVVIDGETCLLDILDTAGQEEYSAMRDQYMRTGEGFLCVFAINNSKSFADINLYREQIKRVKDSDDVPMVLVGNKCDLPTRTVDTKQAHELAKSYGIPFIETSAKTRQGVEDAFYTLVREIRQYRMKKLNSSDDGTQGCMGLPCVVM
# Sequence of GDP-bound KRAS wild-type protein (P01116 whole entry): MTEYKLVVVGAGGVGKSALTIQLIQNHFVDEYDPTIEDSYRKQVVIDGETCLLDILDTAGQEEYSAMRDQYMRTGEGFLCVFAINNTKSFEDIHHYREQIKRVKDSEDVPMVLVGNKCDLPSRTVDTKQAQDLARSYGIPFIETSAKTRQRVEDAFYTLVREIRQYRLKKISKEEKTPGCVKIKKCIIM
# Sequence of GDP-bound HRAS wild-type protein (P01112 whole entry): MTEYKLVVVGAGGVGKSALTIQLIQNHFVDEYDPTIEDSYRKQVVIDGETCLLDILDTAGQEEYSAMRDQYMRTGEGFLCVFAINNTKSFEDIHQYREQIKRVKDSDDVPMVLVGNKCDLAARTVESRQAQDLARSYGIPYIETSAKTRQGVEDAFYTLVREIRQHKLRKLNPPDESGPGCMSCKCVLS
SMILES,"Kd ([1]; SPR, Single Cycle Kinetics) [pM]","Kd [1, 6] [pM]","NRAS/KRAS (ratio of KD value for NRAS to KD value for KRAS) [2, 4]","HRAS/KRAS (ratio of KD value for HRAS to KD value for KRAS) [3, 5]",also measured
"CCO[C@@H]1C[C@H]2C(=O)NC3(CC(C)(C)C3)C(=O)N(C)[C@@H](C3CCCC3)C(=O)N(C)[C@H](C(=O)N(C)CC)CC(=O)N(C)[C@H]3CCCCCCc4ccc(cc4)C[C@@H](C(=O)N(C)CC(=O)N[C@@H](CCc4ccc(C(F)(F)F)c(OC)c4)C(=O)N2C1)N1CC/C=C\C[C@@H](C1=O)N(C)C(=O)CN(C)C(=O)[C@H]([C@@H](C)CC)NC3=O [PP2260, (1S,7S,11R,13S,19S,22S,26S,29S,35S,37Z)-19-cyclopentyl-11-ethoxy-N-ethyl-7-[2-[3-methoxy-4-(trifluoromethyl)phenyl]ethyl]-N,3,3′,3′,18,21,25,31,34-nonamethyl-29-[(1S)-1-methylpropyl]-2,5,8,14,17,20,24,27,30,33,55-undecaoxo-spiro[3,6,9,15,18,21,25,28,31,34,41-undecazapentacyclo[24.15.11.2^43,46.1^35,41.0^9,13]pentapentaconta-37,43(54),44,46(53)-tetraene-16,1′-cyclobutane]-22-carboxamide]",120,–,A (a compound having 10 or more and less than 20 is denoted as A),A (a compound having 10 or more and less than 20 is denoted as A),–
CCCN1C(=O)[C@@H]2CCN2C(=O)CN(C)C(=O)[C@H]([C@@H](C)CC)NC(=O)[C@H](CC(C)C)N(C)C(=O)C[C@@H](C(=O)N2CCOCC2)N(C)C(=O)[C@H](C2CCCC2)N(C)C(=O)C2(CCCC2)NC(=O)[C@@H]2C[C@@H](OCC)CN2C(=O)[C@H](CCc2ccc(C(F)(F)F)c(Cl)c2)NC(=O)CN(C)C(=O)[C@@H]1Cc1ccc(C(F)(F)F)cc1 [PP0410] ([NMeL]I[Sar][Aze][NPrPhe(4-CF3)][Sar][hPhe(3-Cl-4-CF3)][Hyp](Et)[Ac5c][NMeGly(cPent)][NMeD]-Morpholide; lactam N-11),–,58,–,–,"NRAS/KRAS (ratio of KD value with respect to NRAS to KD value with respect to KRAS) [2, 4]: C (A compound having a KD ratio of 0.1 or more and less than 3 is denoted as C); HRAS/KRAS (ratio of KD value with respect to HRAS to KD value with respect to KRAS) [3, 5]: B (a compound having 3 or more and less than 10 is denoted as B)"
CCO[C@@H]1C[C@H]2C(=O)NC3(CCC3)C(=O)N(C)[C@@H](C3CCCC3)C(=O)N(C)[C@H](C(=O)N(C)C)CC(=O)N(C)[C@@H](CC3CCCC3)C(=O)N[C@@H]([C@@H](C)CC)C(=O)N(C)CC(=O)N(C)[C@H]3C/C=C\CCN(C3=O)[C@@H](Cc3ccc(C)cc3)C(=O)N(C)CC(=O)N[C@@H](CCc3ccc(C4CC4)c(C)c3)C(=O)N2C1 [PP2685],–,2100,–,–,NRAS/KRAS (ratio of KD value with respect to GDP-bound NRAS wild-type protein to KD value with respect to KRAS) [2]: A (a compound having 10 or more and less than 20 is denoted as A); HRAS/KRAS (ratio of KD value with respect to GDP-bound HRAS wild-type protein to KD value with respect to KRAS) [3]: A (a compound having 10 or more and less than 20 is denoted as A)
CCCOC[C@H]1C(=O)N[C@@H]([C@@H](C)CC)C(=O)N(C)CC(=O)N(C)[C@H]2C/C=C\CCN(C2=O)[C@@H](Cc2ccc(C)cc2)C(=O)N(C)CC(=O)N[C@@H](CCc2cc(F)c(C(F)(F)F)c(F)c2)C(=O)N2C[C@H](OCC)C[C@H]2C(=O)NC2(CCCC2)C(=O)N(C)[C@@H](C2CCCC2)C(=O)N(C)[C@H](C(=O)N2CCCC2)CC(=O)N1C [PP1401],–,–,–,–,"Kd ([1]; SPR, Single Cycle Kinetics, 1:1 binding model): 260 pM; NRAS/KRAS (ratio of KD value for NRAS to KD value for KRAS) ([2]; SPR, GDP-bound NRAS wild-type protein vs GDP-bound KRAS wild-type protein, KD ratio class): A (a compound having 10 or more and less than 20 is denoted as A); HRAS/KRAS (ratio of KD value for HRAS to KD value for KRAS) ([3]; SPR, GDP-bound HRAS wild-type protein vs GDP-bound KRAS wild-type protein, KD ratio class): A (a compound having 10 or more and less than 20 is denoted as A)"
CCO[C@@H]1C[C@H]2C(=O)NC3(CC(C)(C)C3)C(=O)N(C)[C@@H](C(CC)CC)C(=O)N(C)[C@H](C(=O)N(C)C)CC(=O)N(C)[C@@H](COC)C(=O)N[C@@H]([C@@H](C)CC)C(=O)N(C)CC(=O)N(C)[C@H]3C/C=C\CCN(C3=O)[C@@H](Cc3ccc(C(F)(F)F)cc3)C(=O)N(C)CC(=O)N[C@@H](CCc3ccc(C(F)(F)F)c(OC)c3)C(=O)N2C1 [PP2157],190,–,A (a compound having 10 or more and less than 20 is denoted as A),A (a compound having 10 or more and less than 20 is denoted as A),–
C#CC[C@H]1C(=O)N[C@@H]([C@@H](C)CC)C(=O)N(C)CC(=O)N(C)[C@H]2C/C=C\CCN(C2=O)[C@@H](Cc2ccc(C(F)(F)F)cc2)C(=O)N(C)CC(=O)N[C@@H](CCc2ccc(C(F)(F)F)c(Cl)c2)C(=O)N2CC3(CC3)C[C@H]2C(=O)NC2(CC(C)(C)C2)C(=O)N(C)[C@@H](C2CCCC2)C(=O)N(C)[C@H](C(=O)N(C)C)CC(=O)N1C [PP2980],230,–,A (a compound having 10 or more and less than 20 is denoted as A),B (a compound having 3 or more and less than 10 is denoted as B),–
CCCN1C(=O)[C@@H]2CCN2C(=O)[C@H](C)N(C)C(=O)[C@H]([C@@H](C)CC)NC(=O)[C@H](CC)N(C)C(=O)C[C@@H](C(=O)N2CCOCC2)N(C)C(=O)[C@H](C2CCCC2)N(C)C(=O)C2(CCCC2)NC(=O)[C@@H]2CCCN2C(=O)[C@H](CCc2ccc(C(F)(F)F)c(Cl)c2)NC(=O)CN(C)C(=O)[C@@H]1Cc1ccc(C(F)(F)F)cc1 [PP0194] ([NMeAbu]I[NMeA][Aze][NPrPhe(4-CF3)][Sar][hPhe(3-Cl-4-CF3)]P[Ac5c][NMeGly(cPent)][NMeD]-Morpholide; lactam N-11),–,90,C (A compound having a KD ratio of 0.1 or more and less than 3 is denoted as C),B (a compound having 3 or more and less than 10 is denoted as B),–
CC[C@H](C)[C@@H]1NC(=O)[C@H](CC(C)C)N(C)C(=O)C[C@@H](C(=O)N2CCOCC2)N(C)C(=O)[C@H](C2CCCC2)N(C)C(=O)C2(CCC2)NC(=O)[C@@H]2[C@H](O)CCN2C(=O)[C@H](CCc2cc(F)c(C(F)(F)F)c(F)c2)NC(=O)CN(C)C(=O)[C@H](Cc2ccc(C(F)(F)F)cc2)N2CCCC[C@@H](C2=O)N(C)C(=O)CN(C)C1=O [PP0870],57,–,B (a compound having 3 or more and less than 10 is denoted as B),B (a compound having 3 or more and less than 10 is denoted as B),–

# More lines, main results first:
"Kd ([1]; SPR, Single Cycle Kinetics) [pM]","Kd [1, 6] [pM]",SMILES,"NRAS/KRAS (ratio of KD value for NRAS to KD value for KRAS) [2, 4]","HRAS/KRAS (ratio of KD value for HRAS to KD value for KRAS) [3, 5]",also measured
–,59,CCC[C@H]1C(=O)N[C@@H]([C@@H](C)CC)C(=O)N(C)CC(=O)N(C)[C@H]2C/C=C\CCN(C2=O)[C@@H](Cc2ccc(C)cc2)C(=O)N(C)CC(=O)N[C@@H](CCc2ccc3sc(F)c(C)c3c2)C(=O)N2C[C@H](OCC)C[C@H]2C(=O)NC2(CC(C)(C)C2)C(=O)N(C)[C@@H](C2CCCC2)C(=O)N(C)[C@H](C(=O)N(C)C)CC(=O)N1C [PP2949],–,–,NRAS/KRAS (ratio of KD value with respect to GDP-bound NRAS wild-type protein to KD value with respect to KRAS) [2]: A (a compound having 10 or more and less than 20 is denoted as A); HRAS/KRAS (ratio of KD value with respect to GDP-bound HRAS wild-type protein to KD value with respect to KRAS) [3]: A (a compound having 10 or more and less than 20 is denoted as A)
78,–,"CCO[C@@H]1C[C@H]2C(=O)NC3(CCC3)C(=O)N(C)[C@@H](C3CCCC3)C(=O)N(C)[C@H](C(=O)N(C)C)CC(=O)N(C)[C@@H](CC)C(=O)N[C@@H]([C@@H](C)CC)C(=O)NCC(=O)N(C)[C@H]3C/C=C\CCN(C3=O)[C@@H](Cc3ccc(C(F)(F)F)cc3)C(=O)N(C)CC(=O)N[C@@H](CCc3cc(F)c(C(F)(F)F)c(F)c3)C(=O)N2C1 [PP0983, (2S,8S,12R,14S,20S,23S,27S,30S,36S,38Z)-20-cyclopentyl-8-[2-[3,5-difluoro-4-(trifluoromethyl)phenyl]ethyl]-12-ethoxy-27-ethyl-N,N,4,19,22,26,35-heptamethyl-30-[(1S)-1-methylpropyl]-3,6,9,15,18,21,25,28,31,34,42-undecaoxo-2-[[4-(trifluoromethyl)phenyl]methyl]spiro[1,4,7,10,16,19,22,26,29,32,35-undecazatricyclo[34.5.1.0^10,14]dotetracont-38-ene-17,1′-cyclobutane]-23-carboxamide]",A (a compound having 10 or more and less than 20 is denoted as A),A (a compound having 10 or more and less than 20 is denoted as A),–
–,75,CCCC[C@H]1C(=O)N[C@@H]([C@@H](C)CC)C(=O)N(C)CC(=O)N(C)[C@H]2C/C=C\CCN(C2=O)[C@@H](Cc2ccc(C)cc2)C(=O)N(C)CC(=O)N[C@@H](CCc2cc(F)c(C(F)(F)F)c(F)c2)C(=O)N2C[C@H](OCC)C[C@H]2C(=O)NC2(CCC2)C(=O)N(C)[C@@H](C2CCCC2)C(=O)N(C)[C@H](C(=O)N(C)C)CC(=O)N1C [PP2798],–,–,NRAS/KRAS (ratio of KD value with respect to GDP-bound NRAS wild-type protein to KD value with respect to KRAS) [2]: A (a compound having 10 or more and less than 20 is denoted as A); HRAS/KRAS (ratio of KD value with respect to GDP-bound HRAS wild-type protein to KD value with respect to KRAS) [3]: A (a compound having 10 or more and less than 20 is denoted as A)
